{"source": "patent US20210024520A1", "about": "“THERAPEUTIC AGENT FOR LCAT DEFICIENCY” (DAIICHI SANKYO COMPANY, LIMITED, priority 2018, published 2021)", "type_in_all_cases": "biochemical", "key": {"[1]": {"target": "T1, mutant LCAT protein T1231 (Homo sapiens, UniProt P04180, T147I)", "T1 construct": "made in house; host or cells: HEK293 cells (culture supernatant)", "T1 sequence (P04180 25-440 T147I)": "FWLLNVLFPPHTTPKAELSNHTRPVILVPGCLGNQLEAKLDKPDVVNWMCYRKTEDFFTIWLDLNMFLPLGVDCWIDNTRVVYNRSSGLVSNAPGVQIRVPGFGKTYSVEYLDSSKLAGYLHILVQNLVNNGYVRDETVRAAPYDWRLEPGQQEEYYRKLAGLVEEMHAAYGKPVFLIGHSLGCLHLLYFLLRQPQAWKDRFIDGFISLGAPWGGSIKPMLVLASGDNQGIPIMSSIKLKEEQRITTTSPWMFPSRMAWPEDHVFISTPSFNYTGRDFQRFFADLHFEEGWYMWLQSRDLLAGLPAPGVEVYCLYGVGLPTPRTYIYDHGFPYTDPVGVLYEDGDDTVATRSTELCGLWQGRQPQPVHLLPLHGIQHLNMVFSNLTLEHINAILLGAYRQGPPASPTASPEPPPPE", "assay": "Measurement of LCAT activity using LCAT mutant protein T1231 (FED), reconstituted HDL with [14C]-cholesterol", "conditions": "compound concentration 1 μM", "procedure": "(§1) Mutant LCAT proteins, reported on gene mutations among patients with familial LCAT deficiency (FLD) and patients with fish eye disease (FED), were expressed in HEK293 cells, and the mutant LCAT proteins were purified from the culture supernatant and used as enzyme sources. HDL was reconstituted with phosphatidylcholine, [14C]-labelled cholesterol, and apolipoprotein A-I and used as a reactive substrate. The test compound was prepared by being dissolved in dimethyl sulfoxide. To a mixture of 7 μL of the mutant LCAT protein solution (concentration 0.034 μg/μL), 1 μL each of PBS containing 10% bovine serum albumin or mercaptoethanol, and 40 μL of the above-mentioned reconstituted HDL was further added 1 μL of the test compound (final concentration 1 or 10 μM) to prepare 50 μL of a mixture in total. The mixture was incubated at 37° C. for 1 hour and subsequently a mixed solution of hexane and isopropanol (mixing ratio=3:2) was added to stop the reaction. […] Radioactivity of a portion corresponding to the cholesterol ester separated on each lane by the development on the silica gel thin-layer plate was measured using an imaging analyzer BAS-2500 (manufactured by FUJIFILM Corporation). […] Additionally, the presence and absence of significant differences in both cases were statistically evaluated using t-test or Dunnett multiple comparison test."}, "[2]": {"target": "T2, mutant LCAT protein P10Q (Homo sapiens, UniProt P04180, P34Q)", "T2 construct": "made in house; host or cells: HEK293 cells (culture supernatant)", "T2 sequence (P04180 25-440 P34Q)": "T1 sequence (P04180 25-440 T147I) with P10Q, I123T", "assay": "Measurement of LCAT activity using LCAT mutant protein P10Q (FED), reconstituted HDL with [14C]-cholesterol", "conditions": "compound concentration 1 μM", "procedure": "as §1"}, "[3]": {"target": "T3, mutant LCAT protein N131D (Homo sapiens, UniProt P04180, N155D)", "T3 construct": "made in house; host or cells: HEK293 cells (culture supernatant)", "T3 sequence (P04180 25-440 N155D)": "T1 sequence (P04180 25-440 T147I) with I123T, N131D", "assay": "Measurement of LCAT activity using LCAT mutant protein N131D (FED), reconstituted HDL with [14C]-cholesterol", "conditions": "compound concentration 1 μM", "procedure": "as §1"}, "[4]": {"target": "T4, mutant LCAT protein Y156N (Homo sapiens, UniProt P04180, Y180N)", "T4 construct": "made in house; host or cells: HEK293 cells (culture supernatant)", "T4 sequence (P04180 25-440 Y180N)": "T1 sequence (P04180 25-440 T147I) with I123T, Y156N", "assay": "Measurement of LCAT activity using LCAT mutant protein Y156N (FLD), reconstituted HDL with [14C]-cholesterol", "conditions": "for Measured value of LCAT activity Mean ± standard error (n = 6): 37° C. 1 hour, radioactivity of cholesterol ester", "procedure": "(§2) Mutant LCAT proteins, reported on gene mutations among patients with familial LCAT deficiency (FLD) and patients with fish eye disease (FED), were expressed in HEK293 cells, and the mutant LCAT proteins were purified from the culture supernatant and used as enzyme sources. HDL was reconstituted with phosphatidylcholine, [14C]-labelled cholesterol, and apolipoprotein A-I and used as a reactive substrate. The test compound was prepared by being dissolved in dimethyl sulfoxide. To a mixture of 7 μL of the mutant LCAT protein solution (concentration 0.034 μg/μL), 1 μL each of PBS containing 10% bovine serum albumin or mercaptoethanol, and 40 μL of the above-mentioned reconstituted HDL was further added 1 μL of the test compound (final concentration 1 or 10 μM) to prepare 50 μL of a mixture in total. The mixture was incubated at 37° C. for 1 hour and subsequently a mixed solution of hexane and isopropanol (mixing ratio=3:2) was added to stop the reaction. Water was added and stirred, and subsequently the hexane layer was collected and concentrated to dryness. A chloroform solution (concentration 10 mg/mL) was added thereto, spotted on a silica gel thin-layer plate and developed with a mixed solution of hexane, diethyl ether and ethyl acetate (mixing ratio=85:15:2). Radioactivity of a portion corresponding to the cholesterol ester separated on each lane by the development on the silica gel thin-layer plate was measured using an imaging analyzer BAS-2500 (manufactured by FUJIFILM Corporation). Radioactivities with and without the test compound were compared to calculate the ratio of LCAT activity with the addition of the test compound to that without the addition of the test compound for each of the mutant proteins. Additionally, the presence and absence of significant differences in both cases were statistically evaluated using t-test or Dunnett multiple comparison test."}, "[5]": {"target": "T5, mutant LCAT protein N228K (Homo sapiens, UniProt P04180, N252K)", "T5 construct": "made in house; host or cells: HEK293 cells (culture supernatant)", "T5 sequence (P04180 25-440 N252K)": "T1 sequence (P04180 25-440 T147I) with I123T, N228K", "assay": "Measurement of LCAT activity using LCAT mutant protein N228K (FLD), reconstituted HDL with [14C]-cholesterol", "conditions": "for Measured value of LCAT activity Mean ± standard error (n = 6): 37° C. 1 hour, radioactivity of cholesterol ester", "procedure": "as §2"}, "[6]": {"conditions": "37° C. 1 hour, radioactivity of cholesterol ester"}}, "note": "Changes are numbered by the printed parent chain.", "data": [{"compound": "O=C1Nc2[nH]nc(C3CCN(c4cnc(C(F)(F)F)nc4)CC3)c2[C@@H](C(F)(F)F)[C@H]1O", "note": "[test compound, (+)-Cis-5-hydroxy-4-(trifluoromethyl)-3-{1-[2-(trifluoromethyl)pyrimidin-5-yl]piperidin-4-yl}-1,4,5,7-tetrahydro-6H-pyrazolo[3,4-b]pyridin-6-one]", "values": [{"measurement": "LCAT activity ratio of case of compound addition to no-addition control", "setting": "[1]", "value": 3.75}, {"measurement": "Measured value of LCAT activity Mean ± standard error (n = 6)", "setting": "[1]; [6]", "value": "3263.11 ± 521.27"}, {"measurement": "LCAT activity ratio of case of compound addition to no-addition control", "setting": "[2]", "value": 3.83}, {"measurement": "Measured value of LCAT activity Mean ± standard error (n = 6)", "setting": "[2]; [6]", "value": "2908.25 ± 429.42"}, {"measurement": "LCAT activity ratio of case of compound addition to no-addition control", "setting": "[3]", "value": 3.19}, {"measurement": "Measured value of LCAT activity Mean ± standard error (n = 6)", "setting": "[3]; [6]", "value": "1308.38 ± 259.22"}, {"measurement": "LCAT activity ratio of case of compound addition to no-addition control", "setting": "[4]; compound concentration 1 μM", "value": 1.83}, {"measurement": "Measured value of LCAT activity Mean ± standard error (n = 6)", "setting": "[4]; compound concentration 1 μM", "value": "447.36 ± 47.06"}, {"measurement": "LCAT activity ratio of case of compound addition to no-addition control", "setting": "[4]; compound concentration 10 μM", "value": 1.82}, {"measurement": "Measured value of LCAT activity Mean ± standard error (n = 6)", "setting": "[4]; compound concentration 10 μM", "value": "443.20 ± 36.83"}, {"measurement": "LCAT activity ratio of case of compound addition to no-addition control", "setting": "[5]; compound concentration 1 μM", "value": 2.80}, {"measurement": "Measured value of LCAT activity Mean ± standard error (n = 6)", "setting": "[5]; compound concentration 1 μM", "value": "634.17 ± 66.62"}, {"measurement": "LCAT activity ratio of case of compound addition to no-addition control", "setting": "[5]; compound concentration 10 μM", "value": 2.76}, {"measurement": "Measured value of LCAT activity Mean ± standard error (n = 6)", "setting": "[5]; compound concentration 10 μM", "value": "625.22 ± 41.03"}]}]}
